In ChEMBL document CHEMBL1201862, “PubChem BioAssay data set” (2004):
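Cultured in 96-well plates, cells were exposed to test compound for 48 hours across five concentrations. GI50 = concentration required for 50% inhibition of growth.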 Calls of active or inactive are those of the source. Rule as the data show it: active = GI50 up to about 1.1 µM and inactive = higher.

What was measured:
Assay in all cases: NCI-60 cell line screen, 48 h
[1] = system: CAKI-1
[2] = system: HCT-116
[3] = system: HL-60
[4] = system: HOP-92
[5] = system: K562
[6] = system: M14
[7] = system: MDA-MB-231
[8] = system: MDA-MB-435
[9] = system: MDA-N
[10] = system: Malme-3M
[11] = system: NCI-H522
[12] = system: PC-3
[13] = system: RXF 393
[14] = system: SF-295
[15] = system: SF-539
[16] = system: SK-MEL-2
[17] = system: SR
[18] = system: T47D
[19] = system: UACC-62

Measured: GI50

Cc1cc2oc(C)c(S(=O)(=O)NC(=O)Nc3ccc(Cl)cc3)c(=O)c2c(=O)o1
inactive: [1] > 100 µM | [2] > 100 µM | [3] > 100 µM | [4] > 100 µM | [5] > 100 µM | [6] > 100 µM | [7] > 100 µM | [8] > 100 µM | [9] > 100 µM | [10] > 100 µM | [11] > 100 µM | [12] 83.6 µM | [13] > 100 µM | [14] > 100 µM | [15] > 100 µM | [16] > 100 µM | [17] > 100 µM | [18] > 100 µM | [19] 30.9 µM

O/N=C1\CSc2ccccc2C1
inactive: [1] 90.2 µM | [2] > 100 µM | [3] 5.33 µM | [4] 59.4 µM | [5] > 100 µM | [6] > 100 µM | [7] > 100 µM | [8] > 100 µM | [9] > 100 µM | [10] > 100 µM | [11] > 100 µM | [12] > 100 µM | [13] 72.3 µM | [14] > 100 µM | [15] > 100 µM | [16] > 100 µM | [17] 94.4 µM | [18] > 100 µM | [19] > 100 µM

COC(=O)C1=C(O)c2ccc(Cl)cc2S(=O)(=O)N1C
inactive: [1] > 100 µM | [2] > 100 µM | [3] 33.8 µM | [4] 59 µM | [5] 32.1 µM | [6] 51.1 µM | [7] > 100 µM | [8] > 100 µM | [9] > 100 µM | [10] 77.6 µM | [11] 34.8 µM | [12] 83.4 µM | [13] > 100 µM | [14] 60.5 µM | [16] > 100 µM | [17] > 100 µM | [18] > 100 µM | [19] > 100 µM

CC(CC(=O)O)(CC(=O)O)c1ccccc1
inactive: [1] > 100 µM | [2] > 100 µM | [3] > 100 µM | [4] > 100 µM | [5] 50.2 µM | [6] > 100 µM | [7] > 100 µM | [8] > 100 µM | [9] > 100 µM | [10] > 100 µM | [11] > 100 µM | [12] > 100 µM | [13] > 100 µM | [14] > 100 µM | [16] > 100 µM | [17] > 100 µM | [18] > 100 µM | [19] > 100 µM

CN1C(=O)C23CCCCC2CC1(c1ccccc1)S3 (stereo not given)
inactive: [1] 68.2 µM | [2] 60.3 µM | [3] 35.7 µM | [4] 60.7 µM | [5] 71.1 µM | [6] > 100 µM | [7] 71.1 µM | [8] > 100 µM | [9] > 100 µM | [10] > 100 µM | [11] 76.2 µM | [12] 44.1 µM | [13] 59.2 µM | [14] 65.3 µM | [15] > 100 µM | [16] 47.5 µM | [17] 58.5 µM | [18] 42.6 µM | [19] > 100 µM

COc1c2c(c3c(c1OC)c(=O)c1ccccc1n3C)OCO2
inactive: [1] > 100 µM | [2] > 100 µM | [3] > 100 µM | [4] > 100 µM | [5] 81.5 µM | [6] > 100 µM | [7] > 100 µM | [8] > 100 µM | [9] > 100 µM | [11] > 100 µM | [12] > 100 µM | [14] > 100 µM | [15] > 100 µM | [16] > 100 µM | [17] > 100 µM | [18] > 100 µM | [19] > 100 µM

CCOc1cc(-c2nc3ccccn3c2/N=C/c2cc([N+](=O)[O-])cc([N+](=O)[O-])c2O)ccc1O
inactive: [1] > 100 µM | [2] > 100 µM | [3] > 100 µM | [4] > 100 µM | [5] > 100 µM | [6] > 100 µM | [7] > 100 µM | [8] > 100 µM | [9] > 100 µM | [10] > 100 µM | [11] > 100 µM | [12] > 100 µM | [13] > 100 µM | [14] > 100 µM | [15] > 100 µM | [16] > 100 µM | [17] > 100 µM | [18] > 100 µM | [19] > 100 µM

CC(=O)OCC1OC(n2c(S)nc(-c3ccccc3)c(C#N)c2=O)C(OC(C)=O)C(OC(C)=O)C1OC(C)=O (stereo not given)
inactive: [1] > 100 µM | [2] > 100 µM | [3] > 100 µM | [4] > 100 µM | [5] > 100 µM | [6] > 100 µM | [7] > 100 µM | [8] > 100 µM | [9] > 100 µM | [10] > 100 µM | [11] > 100 µM | [12] > 100 µM | [13] > 100 µM | [14] > 100 µM | [15] > 100 µM | [16] > 100 µM | [17] > 100 µM | [18] > 100 µM | [19] > 100 µM

N=c1oc2ccc(Cl)cc2cc1C(=O)NCc1ccccc1
inactive: [1] > 100 µM | [2] > 100 µM | [3] 11 µM | [4] 28.9 µM | [5] > 42 µM | [6] > 100 µM | [7] > 100 µM | [8] 78.3 µM | [9] > 81.7 µM | [10] 18.4 µM | [11] 24.7 µM | [12] 98.9 µM | [13] 17.8 µM | [14] > 100 µM | [15] > 100 µM | [16] 51.1 µM | [17] > 57.1 µM | [18] 39 µM | [19] 31.6 µM

Oc1c(Cl)c(Cl)c(Cl)c(Cl)c1Cl [PENTACHLOROPHENOL]
inactive: [1] 18.3 µM | [2] 17.4 µM | [3] 17.5 µM | [4] 18.6 µM | [5] 26.4 µM | [6] 20.9 µM | [7] 13.3 µM | [8] 20.7 µM | [9] 23.2 µM | [11] 24 µM | [12] 18.9 µM | [13] 23.2 µM | [14] 17.2 µM | [15] 21.5 µM | [16] 16 µM | [17] 26.1 µM | [18] 20 µM | [19] 16.4 µM

CCOC(=O)/C(C(C)=O)=C(\OC(C)=O)c1ccncc1C(=O)O
inactive: [1] > 100 µM | [2] > 100 µM | [3] > 100 µM | [4] > 100 µM | [5] > 100 µM | [6] > 100 µM | [7] > 100 µM | [8] > 100 µM | [9] > 100 µM | [10] > 100 µM | [11] > 100 µM | [12] > 100 µM | [13] > 100 µM | [14] > 100 µM | [15] > 100 µM | [16] > 100 µM | [17] > 100 µM | [18] > 100 µM | [19] > 100 µM

Cn1c(COC(=O)NC2CCCCC2)c(COC(=O)NC2CCCCC2)c2ccc3ccccc3c21
inactive: [1] 11 µM | [2] 33 µM | [4] 28.1 µM | [5] 51.2 µM | [6] 67.3 µM | [7] 69.5 µM | [8] 14.3 µM | [9] > 100 µM | [10] 36.4 µM | [11] 16.2 µM | [12] 75.9 µM | [13] 24 µM | [14] 41 µM | [15] 16 µM | [16] 31.6 µM | [17] 2.96 µM | [18] 50.4 µM | [19] 48.6 µM

CC(=O)OC/C=C/[C@H](O[Si](C)(C)C(C)(C)C)[C@@H](O)/C=C/COC(C)=O
inactive: [1] > 100 µM | [2] > 100 µM | [4] > 100 µM | [5] 23 µM | [6] > 100 µM | [7] > 100 µM | [8] > 100 µM | [9] > 100 µM | [10] > 100 µM | [11] > 100 µM | [12] > 100 µM | [13] > 100 µM | [14] > 100 µM | [15] > 100 µM | [16] > 100 µM | [17] 30.4 µM | [18] > 100 µM | [19] > 100 µM

Cc1ccc(C(=O)NN=C(/N=N/c2cccc(C)c2)c2ccc(N(C)C)cc2)cc1
inactive: [1] > 100 µM | [2] > 100 µM | [3] > 100 µM | [4] 51.8 µM | [5] > 100 µM | [6] > 100 µM | [7] > 100 µM | [8] > 100 µM | [9] 50.9 µM | [11] > 100 µM | [12] > 100 µM | [14] > 100 µM | [15] > 100 µM | [16] > 100 µM | [17] > 100 µM | [18] 2.82 µM | [19] > 100 µM

Cc1ccc(S(=O)(=O)n2c3c(c4ccccc42)CCN2C[C@H]([C@H](C)Br)CC[C@@H]32)cc1
inactive: [1] > 100 µM | [3] 6.46 µM | [4] > 100 µM | [5] 25.7 µM | [6] > 100 µM | [7] > 100 µM | [8] 32.1 µM | [9] > 100 µM | [10] > 100 µM | [11] > 100 µM | [12] > 100 µM | [13] > 100 µM | [14] > 100 µM | [15] > 100 µM | [16] > 100 µM | [17] 4.01 µM | [18] > 100 µM | [19] > 100 µM
